Test results reported in patent EP0846119B1, “THIENOPYRIMIDINE DERIVATIVES, THEIR PRODUCTION AND USE AS ENDOTHELIN ANTAGONISTS” (Takeda Chemical Industries, Ltd., priority 1995, dated 1997).

What was measured:
[1] = target: T1, human endothelin-B (ETB) receptors (Homo sapiens, UniProt P24530); assay: Binding Test to ETB receptor expressed in an insect cell Sf9 ([125I]endothelin-1 displacement); conditions: Sf9 membrane fractions; [125I]endothelin-1; 25°C, 60 minutes; concentration causing PMB=50%; read-out: IC50 value: µM Human endotherin-B receptor
T1 construct: made in house; host or cells: Sf9 insect cells (membrane fractions)
T1 sequence (P24530 27-442): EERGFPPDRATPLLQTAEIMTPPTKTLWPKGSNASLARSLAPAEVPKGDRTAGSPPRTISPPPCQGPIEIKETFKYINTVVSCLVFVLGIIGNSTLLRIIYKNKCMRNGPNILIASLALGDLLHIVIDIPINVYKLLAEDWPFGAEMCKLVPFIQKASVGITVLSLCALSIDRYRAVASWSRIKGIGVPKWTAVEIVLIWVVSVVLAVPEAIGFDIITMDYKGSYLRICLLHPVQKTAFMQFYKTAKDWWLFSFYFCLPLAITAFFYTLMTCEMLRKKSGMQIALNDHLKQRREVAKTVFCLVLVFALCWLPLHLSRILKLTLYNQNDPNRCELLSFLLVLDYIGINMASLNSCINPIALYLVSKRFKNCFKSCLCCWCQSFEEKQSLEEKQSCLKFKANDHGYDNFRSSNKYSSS
Experimental: Binding Test to ETB receptor expressed in an insect cell Sf9:
(§1) Endothelin (ET) receptors were prepared by diluting fractions of insect cell (Sf9) membrane having human endothelin-B (ETB) receptors expressed, with an assay buffer {200 mM Tris-HCl, 2 mM EGTA (ethylenegiycol bis(2-aminoethylether) tetra acetic acid), 5 mM magnesium acetate, 0.1% BSA (bovine serum albumin), 0.03% NaN3, 0.5 mM PMSF(phenyl methyl sulfonyl fluoride), 20 µg/ml leupeptin, 4 µg/ml E-64 (products of the Peptide Institute), 1 µg/ml pepstatin, (pH 7.2)} respectively in a concentration of 1.4 µg/ml in the former case and 0.7 µg/ml in the latter case.
To 100 µl of each portion was added 5 nM[^125I] endothelin-1 (2 µl). A dimethylsulfoxide solution (3 µl) of the sample was added thereto and incubated at 25°C fpr 60 minutes.
And, to determine the maximum binding amount (B0) and non-specific binding amount (NSB), lots to which a dimethyl sulfoxide solution (3 µl) or a dimethyl sulfoxide solution (3 µl) containing endothelin-1 (10^-5M) had been added, were also incubated.
These lots were supplemented with 0.05% CHAPS(3-[(3-chloroamidopropyl)dimethylammonio]-1-propanesulfonate)-assay buffer (1.5 ml), subjected to filtration through a glass fiber filter GF/F (trade name; product of Whatman Ltd. (England)), and then washed with the same buffer (1.5 ml).
(§2) Radioactivity on the filter was counted in a gamma-counter to determine the Percent Maximum Binding (PMB) in accordance with the aforesaid calculation formula. The concentration causing PMB=50% was determined as IC50 value.

[2] = target: T2, human endothelin-A (ETA) receptors (Homo sapiens, UniProt P25101); assay: Binding Test to ETA receptor expressed in an insect cell Sf9 ([125I]endothelin-1 displacement); conditions: Sf9 membrane fractions; [125I]endothelin-1; 25°C, 60 minutes; concentration causing PMB=50%; read-out: IC50 value: µM Human endotherin-A receptor
T2 construct: made in house; host or cells: Sf9 insect cells (membrane fractions)
T2 sequence (P25101 21-427): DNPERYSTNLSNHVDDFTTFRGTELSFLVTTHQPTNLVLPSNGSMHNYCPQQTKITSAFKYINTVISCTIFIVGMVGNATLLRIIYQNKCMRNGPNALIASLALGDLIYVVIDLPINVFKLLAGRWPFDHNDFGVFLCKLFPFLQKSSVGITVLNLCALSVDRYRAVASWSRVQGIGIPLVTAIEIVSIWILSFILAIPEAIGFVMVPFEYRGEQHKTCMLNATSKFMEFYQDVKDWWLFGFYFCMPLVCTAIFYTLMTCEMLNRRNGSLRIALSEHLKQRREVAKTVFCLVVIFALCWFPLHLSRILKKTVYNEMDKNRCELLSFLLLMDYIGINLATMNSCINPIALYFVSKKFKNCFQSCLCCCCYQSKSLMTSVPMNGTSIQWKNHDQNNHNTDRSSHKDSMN
Experimental: Binding Test to ETA receptor expressed in an insect cell Sf9:
as §1, with “endothelin-A (ETA)” for “endothelin-B (ETB)”, “{20” for “{200”, “(ethyleneglycol bls(2-aminoethylether)” for “(ethylenegiycol bis(2-aminoethylether)”, “PMSF (phenyl” for “PMSF(phenyl”, “Institute, Japan),” for “Institute),”, “latte” for “latter”
To 100 µl of each portion was added 5 nM[^125I] endothelin-1 (2 µl). A dimethylsulfoxide solution (3 µl) of the test compound was added thereto and incubated at 25°C for 60 minutes.
And, to determine the maximum binding amount (B0) and non-specific binding amount (NSB), lots to which a dimethyl sulfoxide solution (3 µl) or a dimethyl sulfoxide solution (3 µl) containing endothelin-1 (10^-3M) had been added, were also incubated.
These lots were supplemented with 0.05% CHAPS(3-[(3-chloroamidopropyl)dimethylammonio]-1-propanesulfonate)-assay buffer (1.5 ml), subjected to filtration through a glass fiber filter GF/F (trade name; product of Whatman Ltd. (England)), and then washed with the same buffer (1.5 ml)).
as §2

Row | SMILES | IC50 [1] [µM] | IC50 [2] [µM]
1 | CCCOc1ccc(-c2sc3c(c2CNS(=O)(=O)CC)c(=O)n(CC(=O)O)c(=O)n3Cc2ccccc2SC)cc1 [11(9), 2,4(1H,3H)-Dioxo-6-(4-propoxyphenyl)-1-(2-methylthiobenzyl)-5-(ethanesulfonamidomethyl)-thieno[2,3-d]pyrimidine-3-acetic acid] | 0.11 | 0.015
2 | CCCS(=O)(=O)NCc1c(-c2ccc(OCOC)cc2)sc2c1c(=O)n(CC(=O)O)c(=O)n2Cc1ccccc1SC [11(17)] | 0.047 | 0.022
3 | COCOc1ccc(-c2sc3c(c2CNS(=O)(=O)C(C)C)c(=O)n(CC(=O)O)c(=O)n3Cc2ccccc2SC)cc1 [11(11), 2,4(1H,3H)-Dioxo-6-(4-methoxymethoxyphenyl)-1-(2-methylthiobenzyl)-5-(isopropanesulfonamidomethyl)thieno[2,3-d]pyrimidine-3-acetic acid] | 0.09 | 0.0066

Now from value to compound:

Row | IC50 [1] [µM] | IC50 [2] [µM] | SMILES
4 | 0.094 | 0.011 | CCCOc1ccc(-c2sc3c(c2CNS(=O)(=O)C(C)C)c(=O)n(CC(=O)O)c(=O)n3Cc2ccccc2SC)cc1 [11(15), 2,4(1H,3H)-Dioxo-6-(4-propoxyphenyl)-1-(2-methylthiobenzyl)-5-(isopropanesulfonamidomethyl)-thieno[2,3-d]pyrimidine-3-acetic acid]
5 | 0.22 | 0.018 | CCCOc1ccc(-c2sc3c(c2CNS(C)(=O)=O)c(=O)n(CC(=O)O)c(=O)n3Cc2ccccc2SC)cc1 [11(7), 2,4(1H,3H)-Dioxo-6-(4-propoxyphenyl)-1-(2-methylthiobenzyl)-5-(methanesulfonamidomethyl)-thieno[2,3-d]pyrimidine-3-acetic acid]
